Source: patent US5663197A, “2-(1-hydroxyethyl)-5-hydroxynaphtho[2,3-b]furan-4,9-dione and antitumor agents comprising this compound” (priority 1992, dated 1997)
In brackets after ≈: the same amount, converted by molar mass.

How the values were obtained:
[1] = tested on: Normal human renal cells; test: In vitro growth test on normal cells, renal cells; type: cell-based
Experimental: (§1) An appropriate amount of NFD was dissolved in DMSO to give a 1.0 mg/ml stock solution, which was diluted as necessary before use.
(§2) The following cells in the late logarithmic phase were harvested after treatment with trypsin (containing 0.25% trypsin and 0.02% EDTA; 37° C., 3 min) and used in the test: human lung adenocarcinoma cell lines A-549, VMRC-LCD and SK-LU-1, human lung squamous cell carcinoma Calu-1 cells, human colon adenocarcinoma WiDr cells, human prostate cancer LNCaP cells, human vaginal squamous cell carcinoma A-431 cells, human cervical carcinoma HeLa cells, human cholangiocarcinoma HuCC-T1 cells, mouse skin cancer melanoma B16 (M4) cells, human pancreatic carcinoma ASPC-1 cells, human neuroblastoma IMR-132 cells, human lung small cell carcinoma SCCH-194 cells, human uninary bladder carcinoma T24 cells, human renal cell carcinoma […] cells, human gastric cancer NUGC-2 cells, human thyroid carcinoma 8305C cells, human hepatoma HUH-7 cells, human ovarian carcinoma TYK-nu cells and human chorio carcinoma BeWo cells. Suspension cultures of human breast cancer MRK-nu-1 cells, human malignant B-cell lymphoma cells and human chronic myelogenous leukemia K562 cells were used to harvest the cells to be used in the test. […] These cells were plated onto a 96-well microplate at a density of 5-10×10^3 cells/cm^2 using DMEM or RPMI-1640 medium containing 10% fetal bovine serum and cultured for 24 hours in a conventional manner, after which a pre-determined amount of NFD dissolved in DMSO was added to each well. Cultivation was continued, and the number of viable cells was counted after 24, 48 and 72 hours. […]
(§3) Growth inhibitory action and lethal activity of NFD on various types of malignant tumor cells and normal human cells listed above were evaluated by counting the number of viable cells in each well of the 96-well microplate. […]

[2] = tested on: Human prostate cancer LNCaP cells; test: In vitro antitumor test (trypan blue exclusion viable cell count), LNCaP; type: cell-based
Experimental: as §1, §2, §3

[3] = tested on: Human lung adenocarcinoma VMRC-LCD cells; test: In vitro antitumor test (trypan blue exclusion viable cell count), VMRC-LCD; type: cell-based; conditions: 72 h, three days exposure, read-out: LD50 (IC50), 50% growth-inhibitory dose
Experimental: as §1
as §2, with “cells.” for “cells. Suspension cultures of human breast cancer MRK-nu-1 cells, human malignant B-cell lymphoma cells and human chronic myelogenous leukemia K562 cells were used to harvest the cells to be used in the test.”, “well.” for “well. Cultivation was continued, and the number of viable cells was counted after 24, 48 and 72 hours.”

[4] = tested on: Human malignant B-cell lymphoma cells; test: In vitro antitumor test (trypan blue exclusion viable cell count), malignant B-cell lymphoma; type: cell-based; conditions: 72 h, three days exposure, read-out: LD50 (IC50), 50% growth-inhibitory dose
[5] = tested on: Human pancreatic carcinoma ASPC-1 cells; test: In vitro antitumor test (trypan blue exclusion viable cell count), ASPC-1; type: cell-based
Experimental: as §1
as §2, with “cells.” for “cells. Suspension cultures of human breast cancer MRK-nu-1 cells, human malignant B-cell lymphoma cells and human chronic myelogenous leukemia K562 cells were used to harvest the cells to be used in the test.”, “well.” for “well. Cultivation was continued, and the number of viable cells was counted after 24, 48 and 72 hours.”

[6] = tested on: malignant tumor cells; test: In vitro antitumor test, panel of malignant tumor cells; type: cell-based, human and mouse
Experimental: as §1
The antitumor effect of NFD on human cancer cells and mouse cancer cells was assessed according to the following methods.
as §2, §3

[7] = tested on: Human hepatoma HuH-7 cells; test: In vitro antitumor test (trypan blue exclusion viable cell count), HuH-7; type: cell-based
Experimental: as §1
as §2, with “cells.” for “cells. Suspension cultures of human breast cancer MRK-nu-1 cells, human malignant B-cell lymphoma cells and human chronic myelogenous leukemia K562 cells were used to harvest the cells to be used in the test.”, “well.” for “well. Cultivation was continued, and the number of viable cells was counted after 24, 48 and 72 hours.”

[8] = Solubility; type: physicochemical
[9] = tested on: Human uninary bladder carcinoma T24 cells; test: In vitro antitumor test (trypan blue exclusion viable cell count), T24; type: cell-based
Experimental: as §1
as §2, with “cells.” for “cells. Suspension cultures of human breast cancer MRK-nu-1 cells, human malignant B-cell lymphoma cells and human chronic myelogenous leukemia K562 cells were used to harvest the cells to be used in the test.”, “well.” for “well. Cultivation was continued, and the number of viable cells was counted after 24, 48 and 72 hours.”

[10] = tested on: Human gastric cancer NUGC-2 cells; test: In vitro antitumor test (trypan blue exclusion viable cell count), NUGC-2; type: cell-based
Experimental: as §1
as §2, with “cells.” for “cells. Suspension cultures of human breast cancer MRK-nu-1 cells, human malignant B-cell lymphoma cells and human chronic myelogenous leukemia K562 cells were used to harvest the cells to be used in the test.”, “well.” for “well. Cultivation was continued, and the number of viable cells was counted after 24, 48 and 72 hours.”

With `CC(O)c1cc2c(o1)C(=O)c1cccc(O)c1C2=O` (stereo not shown) [NFD, 2-(1-hydroxyethyl)-5-hydroxynaphtho[2,3-b]furan-4,9-dione] the “adverse effects on growth of normal cells” value ([1]; FIG. 27, at concentrations which cause necrosis in tumor cells) was “no adverse effects”, the “concentration inhibiting growth of normal renal cells” value ([1]; FIG. 27, only at higher concentration) was 100 ng/mL and the IC50 ([1]; Homo sapiens, 72 h, normal renal cells, three days exposure, read-out: LD50 (IC50), 50% growth-inhibitory dose) was 0.065 µg/mL (≈ 0.252 µM). The “concentration causing necrosis in almost all tumor cells” value ([2]; FIG. 6 (LNCaP; sentence prints human colon adenocarcinoma cells)) was 22.4 to 55.9 ng/mL, the IC (almost complete) ([2]; FIG. 6 (LNCaP; sentence prints human colon adenocarcinoma cells), read-out: concentration inhibiting growth almost completely) was 0.0112 µg/mL and the IC50 ([2]; Homo sapiens, 72 h, LNCaP, three days exposure, read-out: LD50 (IC50), 50% growth-inhibitory dose) was 1.7 ng/mL (≈ 0.00658 µM). The IC50 [3] was 0.013 µg/mL (≈ 0.0503 µM), the IC50 [4] was 5.6 ng/mL (≈ 0.0217 µM) and the IC50 ([5]; ASPC1, 72 h, ASPC-1, three days exposure, read-out: LD50 (IC50), 50% growth-inhibitory dose) was 0.017 µg/mL (≈ 0.0658 µM). For the same compound, the IC (almost complete) ([5]; ASPC1, FIG. 13, read-out: concentration inhibiting growth almost completely) was 0.0335 µg/mL, the “selective toxicity to tumor cells” value ([6]; 23 listed tumor cells) was “exhibits selective toxicity” and the “growth inhibition of tumor cells” value ([6]; at low concentrations, 23 listed tumor cells) was “remarkably inhibits the growth”. For the same compound, the IC50 ([6]; read-out: LD50 (IC50) range over malignant tumor cells) was 0.0055 to 0.025 µg/mL (≈ 0.0213 to 0.0968 µM), the IC50 ([7]; 72 h, HuH-7, three days exposure, read-out: LD50 (IC50), 50% growth-inhibitory dose) was 5.5 ng/mL (≈ 0.0213 µM) and the IC (almost complete) ([7]; Huh-7, FIG. 21, read-out: concentration inhibiting growth almost completely) was 0.02 µg/mL. The solubility in chloroform ([8]; chloroform) was “freely soluble”, the solubility in dimethylsulfoxide ([8]; dimethylsulfoxide) was “freely soluble” and the solubility in water ([8]; water) was “slightly soluble”. It also gave an IC50 ([9]; T-24, 72 h, T24, three days exposure, read-out: LD50 (IC50), 50% growth-inhibitory dose) of 0.021 µg/mL (≈ 0.0813 µM), an IC (almost complete) ([9]; T-24, FIG. 16, read-out: concentration inhibiting growth almost completely) of 0.023 µg/mL and an IC50 ([10]; 72 h, NUGC-2, three days exposure, read-out: LD50 (IC50), 50% growth-inhibitory dose) of 0.017 µg/mL (≈ 0.0658 µM). For the same compound, the IC (almost complete) ([10]; FIG. 18, read-out: concentration inhibiting cells almost completely) was 0.033 µg/mL.
